Assays:
3T3-L1 pre-adipocytes = test: Inhibition of adipocyte differentiation and lipid accumulation, Oil Red O; assay type: cell-based; conditions: Mus musculus, 192 h; 3T3-L1, compound 1 μM, MDI-induced differentiation for 8 days, Oil Red O eluted, absorbance 544 nm; read-out: lipid accumulation rate
Method: 3T3-L1 cells were seeded in a 6-well plate at a density of […] cells per well. The cells were grown to 100% confluency in Dulbecco's modified Eagle's medium (DMEM) supplemented with 10% bovine calf serum (BCS; GIBCO). Two days after reaching 100% confluency, differentiation was induced with or without treatment with the indoline compound at a concentration of 1 μM in DMEM containing 10% fetal bovine serum (FBS; GIBCO) and MDI (520 μM methylisobutylxanthine (IBMX; Sigma-Aldrich), 1 μM dexamethasone (Sigma-Aldrich), and 5 μM insulin (GIBCO)). On day 3, the medium was replaced with DMEM containing 10% FBS and 5 μM insulin with or without the indoline compound, and then with a fresh identical medium every 2 days. After differentiation for 8 days, the culture medium was removed, and the cells were washed with PBS and then fixed with 10% formaldehyde for 1 hour. After removing the 10% formaldehyde, the cells were washed thoroughly with distilled water. After that, 60% isopropanol was added and immediately then removed. After washing with distilled water, lipid droplets were stained with an Oil Red O dye solution for 20 minutes and then washed with distilled water. The cells were counterstained with Mayer's hematoxylin. Oil Red O images were visualized using a bright-field microscope (Nikon TE-2000U). To quantify the accumulated lipids, Oil Red O was eluted by adding isopropanol, and absorbance was measured spectrophotometrically at 544 nm using a multi-plate reader.
As A3051 (KY19382) and A3334, self-developed and synthesized materials were used. As BIO, or GSK 3 Inhibitor IX, also known as 6-bromoindirubin-3′-oxime, HY-10580 was purchased commercially.
In FIG. 2, the undifferentiated group (Un Diff) refers to undifferentiated adipocytes, or preadipocytes that had not been induced to differentiate, and the differentiated group (Diff) refers to fully differentiated adipocytes.

[1] = tested on: mice induced with metabolic dysfunction-associated steatohepatitis (MASH); test: Liver morphology, H&E histology and MAFLD activity score in MASH mice; assay type: in vivo, C57BL/6N mice; conditions: 25 mg/kg/day orally for 4 weeks
Method: Five-week-old wild-type male C57BL/6N mice were purchased from Orient Bio Co., Ltd. They were allowed to acclimate to the laboratory environment for one week. Mice weighing 18-20 g on average were used in the experiment. To ensure ethical and scientific validity and efficient management of animal experiments, the experiment was conducted with the approval of the Institutional Review Board (IACUC-A-202205-1472-01) of Severance Hospital, Yonsei University College of Medicine.
The mice were divided into a normal group (NCD) and a high-fat diet group (HFD). The normal group (NCD) was fed a normal chow diet (NCD, Teklad Global 18% protein rodent diet), and the high-fat diet group (HFD) was fed a high-fat diet (HFD, D12492) in which fat accounted for 60% of the total calories, for 8 weeks. […]
After preparing the 7 groups, the animals were sacrificed using carbon dioxide and the liver tissues were extracted. […] Twenty randomly selected microscopic fields were photographed and analyzed using a Nikon bright-field optical microscope (Nikon TE-2000U).
After preparing the 7 groups, the animals were sacrificed using carbon dioxide and the liver tissues were extracted. After staining the liver tissues with H&E, scores were calculated using the MAFLD activity scoring system. […]

For `N#Cc1ccc2c(c1)/C(=C1/Nc3ccccc3C1=O)C(=O)N2` [5-cyanoindirubin], the activity at 1 µM (3T3-L1 pre-adipocytes) was 79%, the “steatosis / lipid droplets in liver tissue, H&E staining” value [1] was “steatosis was also confirmed clearly” and the “fatty liver, morphological observation of liver tissue” value ([1]; vs MASH group (vehicle)) was “fatty liver was not alleviated significantly”.

Reference: US20260250247A1, “NOVEL INDOLINE DERIVATIVE AND USE THEREOF” (CK REGEON INC., priority 2023, published 2026)
